The experiment relates to P388 leukemia ip, CD2F1 mice, survival T/C. Description: NCI In Vivo Anticancer Drug Screen. Data for tumor model P388 Leukemia (intraperitoneal) in CD2F1 (CDF1) mice. The following applies: endpoint: median survival time, higher = longer survival. Summed up:
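Mice carrying the transplanted tumor received test compound or vehicle. Survival was recorded in each group, and the value is the treated-group measurement divided by that of the vehicle-treated control group.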

Setting [1] is: dose: 100.0 mg/kg/injection, schedule: Q04DX002 (ip), vehicle: Klucel (hydroxypropylcellulose) (HPC).
Where [2] appears, read: dose: 200.0 mg/kg/injection, schedule: Q04DX002 (ip), vehicle: Klucel (hydroxypropylcellulose) (HPC).
Setting [3] is: dose: 100.0 mg/kg/injection, schedule: Q01DX001 (ip), vehicle: saline with Tween-80.
Where [4] appears, read: dose: 200.0 mg/kg/injection, schedule: Q01DX001 (ip), vehicle: saline with Tween-80.
Where [5] appears, read: dose: 400.0 mg/kg/injection, schedule: Q01DX001 (ip), vehicle: saline with Tween-80.
The mark [6] stands for this setting: dose: 50.0 mg/kg/injection, schedule: Q01DX009 (ip), vehicle: Klucel (hydroxypropylcellulose) (HPC).
The mark [7] stands for this setting: dose: 100.0 mg/kg/injection, schedule: Q01DX009 (ip), vehicle: Klucel (hydroxypropylcellulose) (HPC).

SMILES strings stand for the structures. “And” between values parts separate entries of the source, which are not always exact repeats. Equal entries are not always repeated. Inconclusive results and toxic doses are left out.

`Cn1c([N+](=O)[O-])cnc1/C=C1\CCc2cc(OCCN3CCCC3)ccc2C1=O`: the T/C by setting is: (dose: 12.5 mg/kg/injection, schedule: Q01DX009 (ip), vehicle: saline with Tween-80) 90 % of control; (dose: 25.0 mg/kg/injection, schedule: Q01DX009 (ip), vehicle: saline with Tween-80) 93 % of control.
In the case of `COC1OCC2(C)OC(c3ccccc3)=NC2C1O` (stereo not given), the T/C runs as follows: under setting [1], 90 % of control; under setting [2], 100 % of control.
Consider `Cc1ccc(C2N(CCN3C(=O)CS(=O)(=O)C3c3ccc(C)s3)C(=O)CS2(=O)=O)s1` (stereo not given), for which the T/C under setting [3] is 101 % of control; the T/C (dose: 100.0 mg/kg/injection, schedule: Q04DX002 (ip), vehicle: saline with Tween-80) was 97 % of control; the T/C under setting [4] is 94 % of control; the T/C (dose: 200.0 mg/kg/injection, schedule: Q04DX002 (ip), vehicle: saline with Tween-80) was 87 % of control; the T/C under setting [5] is 91 % of control.
For `CC1=NN(C(=O)c2ccncc2)C(=O)C1N=Nc1ccccc1C` (stereo not given), the T/C (dose: 50.0 mg/kg/injection, schedule: Q01DX009 (ip), vehicle: saline with Tween-80) is 95 % of control; the T/C (dose: 100.0 mg/kg/injection, schedule: Q01DX009 (ip), vehicle: saline with Tween-80) is 94 % of control; the T/C (dose: 200.0 mg/kg/injection, schedule: Q01DX009 (ip), vehicle: saline with Tween-80) was 94 % of control.
Turning to `CCC(c1ccc(OCC(=O)N2CC2)cc1)C(CC)c1ccc(OCC(=O)N2CC2)cc1` (stereo not given), the T/C is 99 % of control (dose: 100.0 mg/kg/injection, schedule: Q04DX003 (ip), vehicle: suspension in saline); 98 % of control (dose: 200.0 mg/kg/injection, schedule: Q04DX003 (ip), vehicle: suspension in saline); 100 % of control (dose: 400.0 mg/kg/injection, schedule: Q04DX003 (ip), vehicle: suspension in saline).
With `CC1=CC2OC3C(OC(=O)CCCCl)C(OC(=O)CCCCl)C(C)(C2(CO)CC1)C31CO1` (stereo not given), the T/C is 152 % of control (dose: 4.0 mg/kg/injection, schedule: Q01DX009 (ip), vehicle: saline with Tween-80) and 172 % of control (dose: 8.0 mg/kg/injection, schedule: Q01DX009 (ip), vehicle: saline with Tween-80).
Consider `CC1(C)CC2(CC(C)(C)NC(=O)N2)NC(=O)N1`, for which the T/C is 105 % of control (dose: 50.0 mg/kg/injection, schedule: Q01DX005 (ip), vehicle: Klucel (hydroxypropylcellulose) (HPC)); 92 % of control (dose: 100.0 mg/kg/injection, schedule: Q01DX005 (ip), vehicle: Klucel (hydroxypropylcellulose) (HPC)); 100 % of control (dose: 200.0 mg/kg/injection, schedule: Q01DX005 (ip), vehicle: Klucel (hydroxypropylcellulose) (HPC)).
Turning to `CC(C)(C)NC(=O)c1ccc2c(n1)C(=O)N(C(C)(C)C)C2=S`, the T/C by setting is: under setting [3], 91 % of control; under setting [4], 94 % of control; under setting [5], 100 % of control.
Consider `O=CNNc1cccc(Cl)n1`, for which the T/C runs as follows: (dose: 100.0 mg/kg/injection, schedule: Q01DX001 (ip), vehicle: Klucel (hydroxypropylcellulose) (HPC)) 97 % of control; (dose: 200.0 mg/kg/injection, schedule: Q01DX001 (ip), vehicle: Klucel (hydroxypropylcellulose) (HPC)) 97 % of control; (dose: 400.0 mg/kg/injection, schedule: Q01DX001 (ip), vehicle: Klucel (hydroxypropylcellulose) (HPC)) 98 % of control.
As for `COC1=CC(=O)C(O)=C(CC2(C)C(C)CCC3(C)C2CCCC3(C)C)C1=O` (stereo not given), the T/C under setting [6] is 112 % of control and the T/C under setting [7] was 112 % of control.
In the case of `CC1(C)NC(=O)c2cccnc2S1`, the T/C reads like this: (dose: 60.0 mg/kg/injection, schedule: Q01DX005 (ip), vehicle: saline with Tween-80) 89 % of control; (dose: 120.0 mg/kg/injection, schedule: Q01DX005 (ip), vehicle: saline with Tween-80) 97 % of control; (dose: 240.0 mg/kg/injection, schedule: Q01DX005 (ip), vehicle: saline with Tween-80) 99 % of control.
In the case of `CCC[CH2][Sn]([CH2]CCC)([O]C=O)[O]C=O`, the T/C was 99 % of control and 108 % of control (dose: 0.39 mg/kg/injection, schedule: Q01DX009 (ip), vehicle: saline); 100 % of control and 92 % of control (dose: 0.79 mg/kg/injection, schedule: Q01DX009 (ip), vehicle: saline); 86 % of control and 94 % of control (dose: 1.56 mg/kg/injection, schedule: Q01DX009 (ip), vehicle: saline).
For `CN1CCc2[nH]c3ccccc3c2C1`, the T/C by setting is: under setting [1], 100 % of control; under setting [2], 102 % of control.
As to `C=CCC1CCSC1=O` (stereo not given), the T/C (dose: 25.0 mg/kg/injection, schedule: Q04DX003 (ip), vehicle: saline with Tween-80) is 109 % of control.
As to `CC=C/C=C/[C@@H]1O[C@](O)([C@H](CC)C(=O)NC/C=C/C=C(\C)[C@@H](OC)[C@@H](C)[C@@H]2O[C@H](/C=C/C=C/C=C(\C)C(=O)c3c(O)cc[nH]c3=O)[C@H](O)[C@@H]2O)[C@H](O)[C@H](O)C1(C)C`, the T/C by setting is: (dose: 4.5 mg/kg/injection, schedule: Q01DX009 (ip), vehicle: Klucel (hydroxypropylcellulose) (HPC)) 108 % of control; (dose: 9.0 mg/kg/injection, schedule: Q01DX009 (ip), vehicle: Klucel (hydroxypropylcellulose) (HPC)) 108 % of control; (dose: 18.0 mg/kg/injection, schedule: Q01DX009 (ip), vehicle: Klucel (hydroxypropylcellulose) (HPC)) 104 % of control; (dose: 36.0 mg/kg/injection, schedule: Q01DX009 (ip), vehicle: Klucel (hydroxypropylcellulose) (HPC)) 103 % of control; under setting [6], 98 % of control; under setting [7], 99 % of control. Also, the T/C runs as follows: (dose: 200.0 mg/kg/injection, schedule: Q01DX009 (ip), vehicle: Klucel (hydroxypropylcellulose) (HPC)) 99 % of control; (dose: 400.0 mg/kg/injection, schedule: Q01DX009 (ip), vehicle: Klucel (hydroxypropylcellulose) (HPC)) 102 % of control.
